Results from ChEMBL document CHEMBL5136978, “Research progress in pharmacological activities and structure-activity relationships of tetralone scaffolds as pharmacophore and fluorescent skeleton” (Eur J Med Chem, 2022).
In brackets after ≈: the same amount, converted by molar mass.

Tests used:
[1] = biological target: T1, Amine oxidase [flavin-containing] A (Homo sapiens, UniProt P21397); experiment: Inhibition of recombinant human MAO-A using kynuramine as substrate by fluorescence spectrophotometry
T1 sequence (P21397 whole entry): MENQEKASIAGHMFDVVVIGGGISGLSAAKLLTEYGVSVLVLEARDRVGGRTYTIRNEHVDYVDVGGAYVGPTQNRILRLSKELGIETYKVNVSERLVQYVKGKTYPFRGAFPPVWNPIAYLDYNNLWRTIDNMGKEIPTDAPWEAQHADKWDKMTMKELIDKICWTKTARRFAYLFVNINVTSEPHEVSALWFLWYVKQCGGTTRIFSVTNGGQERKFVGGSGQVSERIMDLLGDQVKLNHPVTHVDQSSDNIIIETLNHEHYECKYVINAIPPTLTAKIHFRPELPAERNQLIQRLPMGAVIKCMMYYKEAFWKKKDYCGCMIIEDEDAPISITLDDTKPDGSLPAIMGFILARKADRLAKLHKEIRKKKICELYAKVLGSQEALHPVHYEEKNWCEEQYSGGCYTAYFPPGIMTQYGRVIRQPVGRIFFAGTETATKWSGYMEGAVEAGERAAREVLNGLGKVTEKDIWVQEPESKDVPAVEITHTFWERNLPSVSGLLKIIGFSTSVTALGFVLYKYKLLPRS

[2] = biological target: T2, Amine oxidase [flavin-containing] B (Homo sapiens, UniProt P27338); experiment: Inhibition of recombinant human MAO-B using kynuramine as substrate by fluorescence spectrophotometry
T2 sequence (P27338 whole entry): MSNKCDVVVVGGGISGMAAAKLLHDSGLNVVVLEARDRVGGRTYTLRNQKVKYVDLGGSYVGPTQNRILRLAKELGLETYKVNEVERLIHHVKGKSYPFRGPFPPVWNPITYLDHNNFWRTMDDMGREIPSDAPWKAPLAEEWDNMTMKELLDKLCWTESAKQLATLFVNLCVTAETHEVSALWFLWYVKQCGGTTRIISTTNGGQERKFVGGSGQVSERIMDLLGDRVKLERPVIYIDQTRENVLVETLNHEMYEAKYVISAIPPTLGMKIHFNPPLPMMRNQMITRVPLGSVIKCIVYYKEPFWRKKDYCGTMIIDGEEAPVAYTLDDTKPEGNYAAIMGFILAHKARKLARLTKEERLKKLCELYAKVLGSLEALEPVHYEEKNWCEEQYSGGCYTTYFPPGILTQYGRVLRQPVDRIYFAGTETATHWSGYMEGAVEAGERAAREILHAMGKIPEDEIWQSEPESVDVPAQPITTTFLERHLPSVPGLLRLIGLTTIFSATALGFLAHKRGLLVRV

Homo sapiens [3] = organism: Homo sapiens; experiment: Selectivity index, ratio of IC50 for recombinant human MAO-A to IC50 for recombinant human MAO-B
A-431 = experiment: Antiproliferative activity against human A-431 cells assessed as cell growth inhibition incubated for 48 hrs by methylene blue staining based colorimetric assay; format: functional; settings: A-431, 48 h
Acetylcholinesterase [4] = biological target: T3, Acetylcholinesterase (Homo sapiens, UniProt P22303); experiment: Inhibition of AChE (unknown origin) using […] preincubated for 15 mins by Ellman's method
KB = experiment: Cytotoxicity aginst human KB cells assessed as cell growth inhibition; format: functional, cell-based; settings: kb
[5] = Inhibition of recombinant bovine mitochondrial MAO-B using benzylamine or serotonin as substrate incubated for 60 mins by fluorimetry assay; set-up: species or system Bos taurus
Acetylcholinesterase [6] = biological target: T3, Acetylcholinesterase; experiment: Inhibition of AChE (unknown origin) using acetylthiocholine iodide as substrate incubated for 5 mins by Ellman's method
Cholinesterase = Cholinesterase (Homo sapiens, UniProt P06276)
Description: Inhibition of BuChE (unknown origin) using acetylthiocholine iodide as substrate incubated for 5 mins by Ellman's method

[7] = biological target: T4, Amine oxidase [flavin-containing] A (Bos taurus, UniProt P21398)
T4 sequence (P21398 whole entry): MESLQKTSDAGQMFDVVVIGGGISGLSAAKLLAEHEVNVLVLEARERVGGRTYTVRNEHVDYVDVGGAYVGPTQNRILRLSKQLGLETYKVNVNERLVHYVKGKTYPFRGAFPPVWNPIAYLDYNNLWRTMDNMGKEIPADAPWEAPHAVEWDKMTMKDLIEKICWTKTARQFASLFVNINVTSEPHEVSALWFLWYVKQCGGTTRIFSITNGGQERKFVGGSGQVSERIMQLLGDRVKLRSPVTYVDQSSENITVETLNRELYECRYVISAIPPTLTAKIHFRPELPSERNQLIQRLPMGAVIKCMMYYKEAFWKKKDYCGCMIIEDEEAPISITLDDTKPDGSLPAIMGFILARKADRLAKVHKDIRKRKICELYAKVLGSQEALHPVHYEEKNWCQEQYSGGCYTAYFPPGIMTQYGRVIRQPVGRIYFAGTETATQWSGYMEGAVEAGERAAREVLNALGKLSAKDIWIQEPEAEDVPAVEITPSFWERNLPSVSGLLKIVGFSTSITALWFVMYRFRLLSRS
Description: Inhibition of recombinant bovine mitochondrial MAO-A using benzylamine or serotonin as substrate incubated for 60 mins by fluorimetry assay

MCF7 = experiment: Antiproliferative activity against human MCF7 cells assessed as cell growth inhibition measured after 5 days by Coulter counter method; format: functional, cell-based; settings: MCF7, 120 h
Rattus norvegicus [8] = organism: Rattus norvegicus; experiment: Selectivity index, ratio of Ki for A2AAR in rat striata to Ki for A1AR in rat whole brain
Escherichia coli [9] = experiment: Antibacterial activity against Escherichia coli MTCC 443 assessed as bacterial growth inhibition; format: functional
Staphylococcus aureus [10] = experiment: Antibacterial activity against Staphylococcus aureus MTCC 096 assessed as bacterial growth inhibition; format: functional
Aspergillus niger = experiment: Antifungal activity against Aspergillus niger MTCC 343 assessed as fungal growth inhibition; format: functional
Homo sapiens [11] = organism: Homo sapiens; experiment: Selectivity index, ratio of IC50 for MAO-A (unknown origin) to IC50 for MAO-B (unknown origin)
[12] = biological target: T1, Amine oxidase [flavin-containing] A; experiment: Inhibition of MAO-A (unknown origin)
Staphylococcus aureus [13] = experiment: Antibacterial activity against Staphylococcus aureus ATCC 29213 assessed as bacterial growth inhibition by CLSI based protocol; format: functional, organism-based
Staphylococcus aureus [14] = experiment: Antibacterial activity against methicillin-resistant Staphylococcus aureus ATCC 33591 assessed as bacterial growth inhibition by CLSI based protocol; format: functional, organism-based
Escherichia coli [15] = experiment: Antibacterial activity against multidrug resistant Escherichia coli MDREC-KG4 clinical isolate assessed as bacterial growth inhibition; format: functional
Escherichia coli [16] = experiment: Antibacterial activity against multidrug resistant Escherichia coli MDREC-EM7 mutant assessed as bacterial growth inhibition; format: functional
Escherichia coli [17] = experiment: Antibacterial activity against multidrug resistant Escherichia coli MDREC-EM5 mutant assessed as bacterial growth inhibition; format: functional
Escherichia coli [18] = experiment: Antibacterial activity against multidrug resistant Escherichia coli MDREC-KG1 clinical isolate assessed as bacterial growth inhibition; format: functional
Rattus norvegicus [19] = organism: Rattus norvegicus; experiment: Selectivity index, ratio of Ki for A2AAR in rat striatal membrane to Ki for A1AR in rat whole brain membrane; format: cell membranes

T3 sequence (P22303 whole entry): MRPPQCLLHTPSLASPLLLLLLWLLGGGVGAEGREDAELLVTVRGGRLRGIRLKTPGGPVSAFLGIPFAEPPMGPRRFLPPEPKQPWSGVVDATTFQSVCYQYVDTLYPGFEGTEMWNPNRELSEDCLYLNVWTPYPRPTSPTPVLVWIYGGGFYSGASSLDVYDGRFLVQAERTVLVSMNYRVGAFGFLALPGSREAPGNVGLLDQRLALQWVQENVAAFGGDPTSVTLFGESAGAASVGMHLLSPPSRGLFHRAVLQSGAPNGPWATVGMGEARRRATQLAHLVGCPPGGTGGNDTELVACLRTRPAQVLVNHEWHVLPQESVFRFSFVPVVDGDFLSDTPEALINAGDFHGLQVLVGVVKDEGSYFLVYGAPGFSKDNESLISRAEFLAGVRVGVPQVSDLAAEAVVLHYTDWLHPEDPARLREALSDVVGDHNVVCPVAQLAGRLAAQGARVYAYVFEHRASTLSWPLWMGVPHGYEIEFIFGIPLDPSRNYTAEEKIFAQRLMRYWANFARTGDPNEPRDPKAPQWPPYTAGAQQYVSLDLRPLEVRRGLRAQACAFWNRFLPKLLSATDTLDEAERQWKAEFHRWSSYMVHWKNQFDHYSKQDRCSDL
Cholinesterase, sequence (P06276 whole entry): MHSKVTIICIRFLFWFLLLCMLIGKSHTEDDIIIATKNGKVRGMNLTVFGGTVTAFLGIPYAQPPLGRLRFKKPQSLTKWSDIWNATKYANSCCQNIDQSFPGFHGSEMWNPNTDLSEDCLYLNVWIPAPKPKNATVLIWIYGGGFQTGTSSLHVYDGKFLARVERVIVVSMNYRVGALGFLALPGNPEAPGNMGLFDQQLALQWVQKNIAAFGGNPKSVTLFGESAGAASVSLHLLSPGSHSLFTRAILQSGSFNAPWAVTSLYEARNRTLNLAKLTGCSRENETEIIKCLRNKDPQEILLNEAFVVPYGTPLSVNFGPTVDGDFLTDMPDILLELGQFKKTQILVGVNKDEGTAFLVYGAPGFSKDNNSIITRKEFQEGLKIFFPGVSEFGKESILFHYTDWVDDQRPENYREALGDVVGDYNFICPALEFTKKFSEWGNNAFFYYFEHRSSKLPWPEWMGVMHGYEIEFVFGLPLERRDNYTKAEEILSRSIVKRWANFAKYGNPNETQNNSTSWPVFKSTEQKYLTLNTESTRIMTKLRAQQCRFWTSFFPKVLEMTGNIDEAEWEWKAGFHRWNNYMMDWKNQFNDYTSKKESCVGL

SMILES: N#Cc1ccc(COc2ccc3c(c2)C(=O)CCC3)cc1
- IC50 [1]: 0.366 µM
- IC50 [2]: 0.047 µM
- Ratio IC50 (Homo sapiens [3]): 8

SMILES: O=C1/C(=C/c2cccnc2)CCc2ccccc21
- IC50 (A-431): < 10 µM

SMILES: COC1CC(=O)c2c(O)ccc(O)c2C1 (centres undefined)
- IC50 (Acetylcholinesterase [4]): 950 µM

SMILES: O=C1CC(O)C(O)c2c(O)cccc21 (centres undefined)
- IC50 (Acetylcholinesterase [4]): 1410 µM

SMILES: O=C1/C(=C/c2ccc(Cl)cc2Cl)CCc2ccccc21
- IC50 (A-431): > 20 µM

SMILES: C[C@@H]1Oc2cccc3c2[C@@H](O1)[C@H](O)CC3=O
- IC50 (KB): 1 ppm

SMILES: COc1ccc(/C=C2\CCc3cc([N+](=O)[O-])ccc3C2=O)c(Cl)c1OC
- IC50 [5]: 2.9 µM
- IC50 (Acetylcholinesterase [6]): 2.92 µM
- IC50 (Cholinesterase): 17.5 µM
- IC50 [7]: 1.24 µM

SMILES: COc1ccc2c(c1)CCc1c(-c3ccc(F)cc3)n[nH]c1-2
- IC50 (MCF7): 1.5 µM

SMILES: O=C1/C(=C/c2cccc(O)c2)CCc2c(O)cccc21
- Ratio Ki (Rattus norvegicus [8]): 3.4

SMILES: COc1ccc2c(c1)CC[C@@H]1C2=NN(C2=NC(=O)C(C)S2)[C@@H]1c1ccc(Cl)cc1 (some centres undefined)
- MIC (Escherichia coli [9]): 12.5 µg/mL (≈ 29.3 µM)
- MIC (Staphylococcus aureus [10]): 12.5 µg/mL (≈ 29.3 µM)
- MIC (Aspergillus niger): 12.5 µg/mL (≈ 29.3 µM)

SMILES: O=C1/C(=C/c2ccc(O)cc2)CCc2c(O)cccc21
- Ratio Ki (Rattus norvegicus [8]): 6

SMILES: Oc1ccc2c(c1)CCc1c(-c3ccc(F)cc3)n[nH]c1-2
- IC50 (MCF7): 5.6 µM

SMILES: COc1ccc(/C=C2\CCc3ccccc3C2=O)cc1
- IC50 (A-431): > 20 µM

SMILES: O=C1/C(=C/c2ccc(Cl)c(Cl)c2)CCc2ccc(O)cc21
- Ratio IC50 (Homo sapiens [11]): 280
- IC50 [12]: 1.79 µM

SMILES: O=C1/C(=C/c2ccccc2)CCc2ccccc21
- IC50 (A-431): < 10 µM

SMILES: O=C1CC[C@H](O)c2c(O)ccc(O)c21
- IC50 (Staphylococcus aureus [13]): 4960 µg/mL (≈ 25500 µM)
- MIC (Staphylococcus aureus [13]): 10000 µg/mL (≈ 51500 µM)
- IC50 (Staphylococcus aureus [14]): 3460 µg/mL (≈ 17800 µM)
- MIC (Staphylococcus aureus [14]): 5000 µg/mL (≈ 25700 µM)

SMILES: Nc1ncc(/C=C2\CCc3c(O)cccc3C2=O)cn1
- Ratio Ki (Rattus norvegicus [8]): 0.14

SMILES: O=C1CC[C@H](O)c2ccccc21 [(-)-4-HYDROXY-ALPHA-TETRALONE]
- MIC (Escherichia coli [15]): 250 µg/mL (≈ 1540 µM)
- MIC (Escherichia coli [16]): 250 µg/mL (≈ 1540 µM)
- MIC (Escherichia coli [17]): 250 µg/mL (≈ 1540 µM)
- MIC (Escherichia coli [18]): 250 µg/mL (≈ 1540 µM)

SMILES: COc1ccc(/C=C2\CCc3c(O)cccc3C2=O)cc1OC
- Ratio Ki (Rattus norvegicus [19]): 1.03

SMILES: COc1cc2c(cc1OC)C(=O)C(CC1CCN(Cc3ccccc3)CC1)C2 (centres undefined) [DONEPEZIL]
- IC50 [7]: 828 µM
